# Source: article PMC13696528, “Combined Immune‐Peptide Nanofiber with HSP70/AKT/mTOR Axis Blockade Enhances Photothermal Immunotherapy, Inhibiting Tumor Growth and Recurrence” (Advanced Science, 2026)
# Assays:
# [1] = system: CT26 cells; assay: Colony formation assay after PTIT; type: cell-based, mouse; conditions: PSP@IR-CF3 + NIR plus VER-155008 (0.2 μM) or Rapa (10 nM), 14 days, n = 3
# Method: CT26 cells were harvested and prepared as a single-cell suspension. […] Following the indicated treatments, cells were cultured under standard conditions (37 °C, 5% CO₂) for 14 days until visible colonies had formed.
# The culture medium was then removed, and the cells were gently washed with PBS. Colonies were fixed with 4% paraformaldehyde for 10–15 min and stained with crystal violet for 10–20 min. Excess dye was removed by washing with distilled water, and the plates were air-dried. Colonies were quantified using ImageJ software (RRID:SCR_003070).
# [2] = system: CT26-Luc tumor-bearing mice; assay: In vivo recurrence study with HSP70 inhibition; design: species or system mouse; conditions: combined with PTIT (PSP@IR-CF3 + NIR), VER-155008 20 mg kg⁻¹ d⁻¹ i.p. 7 days, n = 10, 28 days
# Method: CT26-Luc cells were cultured under standard conditions and harvested during the logarithmic growth phase. BALB/c mice were subcutaneously inoculated with CT26-Luc cells to establish tumor-bearing models.
# In the combination group, the HSP70 inhibitor VER-155008 was administered via intraperitoneal injection at a dose of 20 mg kg⁻¹ d⁻¹ for 7 consecutive days beginning immediately after NIR irradiation. Tumor growth was monitored regularly, and mice were followed for 28 days after treatment to evaluate tumor recurrence. Tumor recurrence was defined as the reappearance of measurable tumor growth at the original treatment site following initial tumor regression.
Structure (SMILES),colony formation and clonogenic recovery after PTIT [1],recurrent tumors [2]
"CO[C@H]1C[C@@H]2CC[C@@H](C)[C@@](O)(O2)C(=O)C(=O)N2CCCC[C@H]2C(=O)O[C@H]([C@H](C)C[C@@H]2CC[C@@H](O)[C@H](OC)C2)CC(=O)[C@H](C)/C=C(\C)[C@@H](O)[C@@H](OC)C(=O)[C@H](C)C[C@H](C)/C=C/C=C/C=C/1C [Rapamycin, rapamycin]",reduced colony formation and impaired clonogenic recovery,–
N#Cc1ccc(COC[C@H]2O[C@@H](n3c(NCc4ccc(Cl)c(Cl)c4)nc4c(N)ncnc43)[C@H](O)[C@@H]2O)cc1 [VER-155008],reduced colony formation and impaired clonogenic recovery,no recurrent tumors
